This is an account of results in US20170037028A1 (BAYER PHARMA AKTIENGESELLSCHAFT, priority 2013, published 2017).

The target of one assay is T1, GLUT1 (Homo sapiens, UniProt P11166).
T1 sequence (P11166 1-492): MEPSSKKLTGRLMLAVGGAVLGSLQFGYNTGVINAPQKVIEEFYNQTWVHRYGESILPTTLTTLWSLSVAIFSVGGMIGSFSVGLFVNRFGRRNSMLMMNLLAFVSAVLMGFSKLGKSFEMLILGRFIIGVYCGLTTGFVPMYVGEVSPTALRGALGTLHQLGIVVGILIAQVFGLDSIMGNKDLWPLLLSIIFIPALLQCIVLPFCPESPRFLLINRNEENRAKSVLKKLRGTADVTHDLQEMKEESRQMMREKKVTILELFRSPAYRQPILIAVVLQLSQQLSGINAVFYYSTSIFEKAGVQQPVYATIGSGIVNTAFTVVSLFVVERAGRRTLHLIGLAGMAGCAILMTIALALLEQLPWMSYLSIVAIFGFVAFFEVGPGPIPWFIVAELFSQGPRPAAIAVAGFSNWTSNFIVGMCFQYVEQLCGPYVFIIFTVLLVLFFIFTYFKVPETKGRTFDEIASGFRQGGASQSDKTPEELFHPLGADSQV
Nature of the assay: Indirect measurement of GLUT1 activity by quantification of intracellular ATP levels (glucose induced ATP increase). The format is cell-based. Details: endogenous in cells; host or cells: DLD1 or CHO-K1. To be noted: DLD1 cells; 0.1 mM glucose, 1 μM Rotenone, 15 min; CellTiter-Glo ATP readout; IC50 values standardized to cytochalasin B IC50 values; read-out: IC50 regarding glucose induced ATP increase (GLUT1 inhibition). In a few lines:
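Intracellular ATP was measured by CellTiter-Glo luminescence as an indirect readout of transport: glucose-driven for GLUT1, fructose-driven for GLUT2. DLD1 or CHO-K1 cells were used alongside an oxidative phosphorylation inhibitor. Beforehand, cells were held overnight in glucose-free 1% FCS medium to deplete ATP.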
On the technique in general: In ATP-based viability assays light output follows the ATP content of the culture.
Consider `Cc1c(NC(=O)c2cc(C(N)=O)nc3cc(F)ccc23)c(C(F)(F)F)nn1Cc1cccc(C#N)c1` [Example 1578], for which the IC50 – broadly, the concentration that gives 50% inhibition – was 25 nM.

Still in this assay, the particulars now being: read-out: IC50 regarding glucose induced ATP increase (GLUT1 inhibition).
Turning to `Cc1c(NC(=O)c2cc(C(N)=O)nc3ccc(Br)cc23)c(C(F)(F)F)nn1Cc1c(F)cc(C#N)cc1F` [Example 399, 6-bromo-N^4-[1-(4-cyano-2,6-difluorobenzyl)-5-methyl-3-(trifluoromethyl)-1H-pyrazol-4-yl]quinoline-2,4-dicarboxamide], the concentration for half-maximal inhibition (IC50) was determined as 4.5 nM.
On the same count and under the same terms, the same measure for `Cc1nn(Cc2ccc(C(=O)NCc3ccccc3)cn2)c(C)c1NC(=O)c1cc(C(F)(F)F)nc2ccc(Br)cc12` [Example 1151]: 128 nM; for `COc1ccc(Cn2nc(C)c(NC(=O)c3cc(C(N)=O)nc4c(F)cc(Cl)cc34)c2C)cc1` [Example 276, 6-chloro-8-fluoro-N^4-[1-(4-methoxybenzyl)-3,5-dimethyl-1H-pyrazol-4-yl]quinoline-2,4-dicarboxamide]: 1.3 nM.
On to `Cc1nn(Cc2ccncc2C#N)c(C)c1NC(=O)c1cc(C(F)(F)F)nc2ccc(Br)cc12` [Example 1074], for which the IC50 worked out at 22.3 nM.
For `Cc1nn(CC2CCN(C(=O)OC(C)(C)C)CC2)c(C)c1NC(=O)c1cc(C(N)=O)nc2ccccc12` [Example 1184], the IC50 was found to be 242 nM.
Still for that read-out and setting: the same measure for `Cc1nn(Cc2noc(C(=O)N(C)C)n2)c(C)c1NC(=O)c1cc(C(N)=O)nc2ccccc12` [Example 1521]: 1670 nM.
With `COc1cc(C(=O)Nc2c(C)nn(CCCc3ccc(C#N)cc3)c2C)c2ccccc2n1` [Example 349, N-{1-[3-(4-cyanophenyl)propyl]-3,5-dimethyl-1H-pyrazol-4-yl}-2-methoxyquinoline-4-carboxamide], the IC50 came out at 15.7 nM.
Turning to `Cc1c(NC(=O)c2cc(C(N)=O)nc3cc(F)c(Cl)cc23)c(C(F)(F)F)nn1Cc1cc(CN2CCOCC2)on1` [Example 1676], the IC50 is 81.8 nM.
As to `COc1ccc(Cn2nc(C)c(NC(=O)c3cc(C(N)=O)nc4ccc(F)cc34)c2C)cc1` [Example 227, 6-fluoro-N^4-[1-(4-methoxybenzyl)-3,5-dimethyl-1H-pyrazol-4-yl]quinoline-2,4-dicarboxamide], the IC50 is 4.6 nM.
Take `CCS(=O)(=O)N1CCC(Cn2nc(C(F)(F)F)c(NC(=O)c3cc(C(N)=O)nc4cc(F)ccc34)c2C)CC1` [Example 1545]: the IC50 was 43.1 nM.
With `Cc1nn(Cc2ccc(F)c(F)c2)c(C)c1NC(=O)c1cc(C(F)(F)F)nc2c(Cl)cc(Cl)cc12` [Example 35, 6,8-dichloro-N-[1-(3,4-difluorobenzyl)-3,5-dimethyl-1H-pyrazol-4-yl]-2-(trifluoromethyl)quinoline-4-carboxamide], the IC50 turned out to be 25.6 nM.
As to `Cc1cccc(Cn2nc(C(F)(F)F)c(NC(=O)c3cc(C(N)=O)nc4cc(F)c(Cl)cc34)c2C)c1` [Example 1481], the IC50 turned out to be 5.5 nM.
For `Cc1c(NC(=O)c2cc(C(N)=O)nc3cc(F)c(Cl)cc23)c(C(F)(F)F)nn1Cc1ccc(CC(F)(F)F)cc1` [Example 1716], the IC50 amounted to 3 nM.
Consider `Cc1nn(Cc2ccc(F)cc2)c(C)c1NC(=O)c1cc(C(F)(F)F)nc2c(C#N)cccc12` [Example 1268], for which the IC50 was 2850 nM.
Take `Cc1nn(Cc2ccc(F)cc2)c(C)c1NC(=O)c1cc(C2CC2)nc2cc(Br)ccc12` [Example 100, 7-bromo-2-cyclopropyl-N-[1-(4-fluorobenzyl)-3,5-dimethyl-1H-pyrazol-4-yl]quinoline-4-carboxamide]: the 50% inhibitory concentration (IC50) turned out to be 371 nM.
Take `CCCS(=O)(=O)N1CCC(Cn2nc(C)c(NC(=O)c3cc(C(N)=O)nc4ccccc34)c2C)CC1` [Example 1510]: the IC50 was 20 nM.
For `Cc1nn(Cc2ccc(C(=O)Nc3ccc(N(C)C)cc3)cc2)c(C)c1NC(=O)c1cc(C(F)(F)F)nc2ccc(Br)cc12` [Example 1069], the half-maximal inhibitory concentration (IC50) is 19.8 nM.
On to `Cc1c(NC(=O)c2cc(C(N)=O)nc3ccc(Br)cc23)c(C(F)(F)F)nn1Cc1ccc(F)c(F)c1` [Example 1445], for which the IC50 turned out to be 5.7 nM.
For the compound `Cc1nn(Cc2ncccc2C#N)c(C)c1NC(=O)c1cc(C(N)=O)nc2ccccc12` [Example 1082], the IC50 is 28.2 nM.
Same read-out and setting: the same measure for `Cc1nn(Cc2ccc(C(=O)NCCCN3CCOCC3)cc2)c(C)c1NC(=O)c1cc(C(F)(F)F)nc2ccc(Br)cc12` [Example 1133]: 90.1 nM; for `Cc1nn(Cc2nccn2C)c(C)c1NC(=O)c1cc(C(F)(F)F)nc2ccc(Br)cc12` [Example 1524]: 2020 nM.
`Cc1nn(Cc2cc(F)ccc2F)c(C)c1NC(=O)c1cc(C(F)(F)F)nc2ccc(Br)cc12` [Example 1238]: the IC50 worked out at 1370 nM.
For the compound `Cc1c(NC(=O)c2cc(C(N)=O)nc3ccccc23)c(C(F)(F)F)nn1Cc1ccc(C#N)nc1` [Example 289, N^4-{1-[(6-cyanopyridin-3-yl)methyl]-5-methyl-3-(trifluoromethyl)-1H-pyrazol-4-yl}quinoline-2,4-dicarboxamide], the IC50 worked out at 21.5 nM.
Regarding `CCc1cc(Cn2nc(C)c(NC(=O)c3cc(C(N)=O)nc4cc(F)c(Cl)cc34)c2C)on1` [Example 414, 6-chloro-N^4-{1-[(3-ethyl-1,2-oxazol-5-yl)methyl]-3,5-dimethyl-1H-pyrazol-4-yl}-7-fluoroquinoline-2,4-dicarboxamide], the IC50 was determined as 1.3 nM.
For `COCCN(C(=O)c1cc(C(F)(F)F)nc2ccc(Br)cc12)c1c(C)nn(Cc2ccc(F)cc2)c1C` [Example 194, 6-bromo-N-[1-(4-fluorobenzyl)-3,5-dimethyl-1H-pyrazol-4-yl]-N-(2-methoxyethyl)-2-(trifluoromethyl)quinoline-4-carboxamide], the IC50 was 229 nM.
Regarding `Cc1c(NC(=O)c2cc(C(F)(F)F)nc3ccc(Br)cc23)c(C(F)(F)F)nn1Cc1ccc(F)cc1F` [Example 179, 6-bromo-N-[1-(2,4-difluorobenzyl)-5-methyl-3-(trifluoromethyl)-1H-pyrazol-4-yl]-2-(trifluoromethyl)quinoline-4-carboxamide], the half-maximal inhibitory concentration (IC50) is 78.5 nM.
As to `Cc1nn(Cc2ccc(O)cc2)c(C)c1NC(=O)c1cc(C(F)(F)F)nc2ccc(Br)cc12` [Example 164, 6-bromo-N-[1-(4-hydroxybenzyl)-3,5-dimethyl-1H-pyrazol-4-yl]-2-(trifluoromethyl)quinoline-4-carboxamide], the IC50 was determined as 27.1 nM.
Take `Cc1cc(C(=O)Nc2c(C)nn(Cc3ccc(F)cc3)c2C)c2cc(C#N)ccc2n1` [Example 1237]: the IC50 was 1320 nM.
`Cc1nn(CCCc2ccc(C#N)cc2)c(C)c1NC(=O)c1cc(C(F)(F)F)nc2ccc(Br)cc12` [Example 348, 6-bromo-N-{1-[3-(4-cyanophenyl)propyl]-3,5-dimethyl-1H-pyrazol-4-yl}-2-(trifluoromethyl)quinoline-4-carboxamide]: the IC50 amounted to 6.1 nM.
As to `Cc1c(NC(=O)c2cc(C(N)=O)nc3cc(F)c(Cl)cc23)c(C(F)(F)F)nn1Cc1ccc(F)cc1F` [Example 1441], the IC50 was 6.5 nM.
Take `Cc1c(NC(=O)c2cc(C(N)=O)nc3cccc(F)c23)c(C(F)(F)F)nn1Cc1cccc(C#N)n1` [Example 1688]: the IC50 turned out to be 86.8 nM.
Take `Cc1nn(Cc2ccc(C(=O)NC3CCCC3)cc2)c(C)c1NC(=O)c1cc(C(F)(F)F)nc2ccc(Br)cc12` [Example 1182]: the IC50 came out at 238 nM.
Take `Cc1nn(Cc2ccc(C(=O)NCC3CC3)cn2)c(C)c1NC(=O)c1cc(C(F)(F)F)nc2ccc(Br)cc12` [Example 1073]: the IC50 is 21.7 nM.
As to `COc1cc(C(=O)Nc2c(C)nn(C(C)c3ccccc3)c2C)c2ccccc2n1` (racemic) [Example 1361], the IC50 was 36.9 nM.
Consider `Cc1nn(Cc2ccccc2C#N)c(C)c1NC(=O)c1cc(C(N)=O)nc2ccc(Br)cc12` [Example 268, 6-bromo-N^4-[1-(2-cyanobenzyl)-3,5-dimethyl-1H-pyrazol-4-yl]quinoline-2,4-dicarboxamide], for which the IC50 turned out to be 0.6 nM.
The same measure, in the same setting: the same measure for `COc1ccc(CCCn2nc(C)c(NC(=O)c3cc(C(F)(F)F)nc4ccc(Br)cc34)c2C)cc1` [Example 1165]: 168 nM; for `Cc1c(NC(=O)c2cc(C(F)(F)F)nc3ccc(Br)cc23)c(C(=O)NCCO)nn1Cc1ccc(F)cc1` [Example 1235]: 1280 nM; for `Cc1ccc(Cn2nc(C)c(NC(=O)c3cc(C)nc4ccc(C)cc34)c2C)cc1` [Example 45, N-[3,5-dimethyl-1-(4-methylbenzyl)-1H-pyrazol-4-yl]-2,6-dimethylquinoline-4-carboxamide]: 35.4 nM.
In the case of `Cc1c(NC(=O)c2cc(C(F)(F)F)nc3ccc(Br)cc23)c(C(F)(F)F)nn1Cc1ccc(F)c(F)c1` [Example 197, 6-bromo-N-[1-(3,4-difluorobenzyl)-5-methyl-3-(trifluoromethyl)-1H-pyrazol-4-yl]-2-(trifluoromethyl)quinoline-4-carboxamide], the IC50 came out at 333 nM.
As for `Cc1c(NC(=O)c2cc(C(N)=O)nc3ccc(O)cc23)c(C(F)(F)F)nn1Cc1ccc(C#N)cc1` [Example 425, N^4-[1-(4-cyanobenzyl)-5-methyl-3-(trifluoromethyl)-1H-pyrazol-4-yl]-6-hydroxyquinoline-2,4-dicarboxamide], the IC50 worked out at 4.9 nM.
